# Data taken from ChEMBL document CHEMBL3396981, “Synthesis and in vitro biological evaluation of 2-(phenylcarbamoyl)phenyl 4-substituted benzoates” (Bioorg Med Chem, 2015).
# Experiments:
# [1] = system: Mycobacterium tuberculosis; experiment: Antimycobacterial activity against INH, RIF, rifabutin, streptomycin, ethambutol, ofloxacin-resistant Mycobacterium tuberculosis 7357/1998 after 14 days by microdilution method; format: functional; settings: 7357/1998, 336 h
# [2] = system: Mycobacterium tuberculosis; experiment: Antimycobacterial activity against INH, RIF, rifabutin, streptomycin, ethambutol, ofloxacin-resistant Mycobacterium tuberculosis 7357/1998 after 21 days by microdilution method; format: functional; settings: 7357/1998, 504 h
# [3] = system: Mycobacterium tuberculosis; experiment: Antimycobacterial activity against INH, RIF, rifabutin, streptomycin-resistant Mycobacterium tuberculosis 9449/2006 after 14 days by microdilution method; format: functional; settings: 9449/2006, 336 h
# [4] = system: Mycobacterium tuberculosis; experiment: Antimycobacterial activity against INH, RIF, rifabutin, streptomycin-resistant Mycobacterium tuberculosis 9449/2006 after 21 days by microdilution method; format: functional; settings: 9449/2006, 504 h
# [5] = system: Mycobacterium tuberculosis; experiment: Antimycobacterial activity against INH, RIF, rifabutin, streptomycin, ethambutol, ofloxacin-resistant Mycobacterium tuberculosis 234/2005 after 14 days by microdilution method; format: functional; settings: 234/2005, 336 h
# [6] = system: Mycobacterium tuberculosis; experiment: Antimycobacterial activity against INH, RIF, rifabutin, streptomycin, ethambutol, ofloxacin-resistant Mycobacterium tuberculosis 234/2005 after 21 days by microdilution method; format: functional; settings: 234/2005, 504 h
# [7] = system: Mycobacterium tuberculosis; experiment: Antimycobacterial activity against INH, RIF, rifabutin, streptomycin, ethambutol, clofazimine-resistant Mycobacterium tuberculosis Praha 1 after 14 days by microdilution method; format: functional; settings: Praha 1, 336 h
# [8] = system: Mycobacterium tuberculosis; experiment: Antimycobacterial activity against INH, RIF, rifabutin, streptomycin, ethambutol, clofazimine-resistant Mycobacterium tuberculosis Praha 1 after 21 days by microdilution method; format: functional; settings: Praha 1, 504 h
# [9] = system: Mycobacterium tuberculosis; experiment: Antimycobacterial activity against INH, RIF, rifabutin, streptomycin, ethambutol, ofloxacin, gentamicin, amikacin-resistant Mycobacterium tuberculosis Praha 131 after 14 days by microdilution method; format: functional; settings: Praha 131, 336 h
# [10] = system: Mycobacterium tuberculosis; experiment: Antimycobacterial activity against INH, RIF, rifabutin, streptomycin, ethambutol, ofloxacin, gentamicin, amikacin-resistant Mycobacterium tuberculosis Praha 131 after 21 days by microdilution method; format: functional; settings: Praha 131, 504 h
# [11] = Selectivity index, ratio of IC50 for human HepG2 cells to MIC for multidrug-resistant Mycobacterium tuberculosis; format: toxicity, cell-based; settings: read-out: Selectivity Index
# [12] = system: Mycobacterium tuberculosis; experiment: Antimycobacterial activity against INH, RIF, rifabutin, streptomycin, ethambutol, ofloxacin, clofazimine-resistant Mycobacterium tuberculosis Praha 4 after 14 days by microdilution method; format: functional; settings: Praha 4, 336 h
# [13] = system: Mycobacterium tuberculosis; experiment: Antimycobacterial activity against INH, RIF, rifabutin, streptomycin, ethambutol, ofloxacin, clofazimine-resistant Mycobacterium tuberculosis Praha 4 after 21 days by microdilution method; format: functional; settings: Praha 4, 504 h
Compound,MIC [1] [µM],MIC [2] [µM],MIC [3] [µM],MIC [4] [µM],MIC [5] [µM],MIC [6] [µM],MIC [7] [µM],MIC [8] [µM],MIC [9] [µM],MIC [10] [µM],selectivity ratio [11],MIC [12] [µM],MIC [13] [µM]
O=C(Oc1ccc(Cl)cc1C(=O)Nc1ccc(C(F)(F)F)cc1)c1ccc(Br)cc1,1,1,1,1,2,2,1,1,1,1,> 25,–,–
O=C(Oc1ccc(Br)cc1C(=O)Nc1ccc(C(F)(F)F)cc1)c1ccc(C(F)(F)F)cc1,1,1,1,1,0.5,1,0.5,1,0.5,1,–,–,–
O=C(Oc1ccc(Cl)cc1C(=O)Nc1ccc(C(F)(F)F)cc1)c1ccc([N+](=O)[O-])cc1,0.5,1,0.5,1,0.25,1,0.5,1,0.5,1,> 50,0.25,1
O=C(Oc1ccc(Cl)cc1C(=O)Nc1ccc(C(F)(F)F)cc1)c1ccc(C(F)(F)F)cc1,0.5,1,1,1,0.5,1,0.5,0.5,0.5,1,–,–,–
Cc1ccc(C(=O)Oc2ccc(Br)cc2C(=O)Nc2ccc(C(F)(F)F)cc2)cc1,1,1,1,1,2,2,1,1,1,1,> 25,1,1
O=C(Oc1ccc(Cl)cc1C(=O)Nc1ccc(C(F)(F)F)cc1)c1ccccc1,0.25,0.5,0.5,0.5,0.25,0.25,0.5,0.5,0.25,0.5,–,–,–
O=C(Oc1ccc(Br)cc1C(=O)Nc1ccc(C(F)(F)F)cc1)c1ccccc1,0.25,0.5,1,1,0.5,0.5,1,1,0.5,1,–,–,–
O=C(Oc1ccc(Br)cc1C(=O)Nc1ccc(C(F)(F)F)cc1)c1ccc([N+](=O)[O-])cc1,0.5,0.5,0.5,0.5,–,–,–,–,0.25,0.5,> 100,0.5,0.5
O=C(Oc1ccc(Cl)cc1C(=O)Nc1ccc(Cl)c(Cl)c1)c1ccc([N+](=O)[O-])cc1,0.25,0.5,0.25,0.5,–,–,–,–,0.25,0.25,> 100,0.25,0.5
O=C(Oc1ccc(Cl)cc1C(=O)Nc1ccc(Cl)c(Cl)c1)c1ccc(Br)cc1,0.125,0.125,0.25,0.5,–,–,–,–,0.25,0.25,> 100,0.25,0.5
O=C(Oc1ccc(Cl)cc1C(=O)Nc1ccc(Cl)c(Cl)c1)c1ccc(C(F)(F)F)cc1,1,2,2,2,1,2,1,2,2,2,–,–,–
O=C(Oc1ccc(Cl)cc1C(=O)Nc1ccc(Cl)c(Cl)c1)c1ccccc1,0.5,0.5,0.5,1,0.25,0.5,0.5,0.5,0.5,1,–,–,–
O=C(Oc1ccc(Br)cc1C(=O)Nc1ccc(C(F)(F)F)cc1)c1ccc(Br)cc1,0.5,1,0.5,1,–,–,–,–,0.5,1,> 50,0.25,0.5
Cc1ccc(C(=O)Oc2ccc(Cl)cc2C(=O)Nc2ccc(Cl)c(Cl)c2)cc1,1,1,1,1,2,2,1,1,1,1,> 25,1,1
Cc1ccc(C(=O)Oc2ccc(Cl)cc2C(=O)Nc2ccc(C(F)(F)F)cc2)cc1,1,1,1,1,2,2,1,1,1,1,> 25,1,1
